Several values for one entry are separate records, joined by “and”; a condition that tells them apart may be missing. Equal values may be shown once. Read-outs that look alike come from different tables or passages of the source.
Key:
MCF-7 cells = assay: MCF-7 Cell Proliferation Assay (14C-thymidine, agonist and antagonist mode); format: cell-based; settings: number in brackets = number of tests, NA = no detected activity at test concentration; for EC50: MCF7, agonist mode
Experimental: This assay was run according to the procedure described by Welshons, et al., (Breast Cancer Res. Treat., 1987, 10(2), 169-75), with minor modification.
Briefly, MCF-7 cells (from Dr. C. Jordan, Northwestern University) were maintained in RPMI 1640 phenol red free medium (Gibco) in 10% FBS (Hyclone), supplemented with bovine insulin and non-essential amino acid (Sigma). The cells were initially treated with 4-hydoxyltamoxifen (10^−8 M) and let stand at 37° C. for 24 hours. Following this incubation with tamoxifen, the cells were treated with compounds at various concentrations.
Compounds to be tested in the agonist mode were added to the culture media at varying concentrations. Compounds to be treated in the antagonist mode were prepared similarly, and 10 nM 17β-estradiol was also added to the culture media. The cells were incubated for 24 hours at 37° C. Following this incubation, 0.1 μCi of ^14C-thymidine (56 mCi/mmol, Amersham) was added to the culture media and the cells were incubated for an additional 24 hours at 37° C. The cells were then washed twice with Hank's buffered salt solution (HBSS) (Gibco) and counted with a scintillation counter. The increase in the ^14C-thymidine in the compound treated cells relative to the vehicle control cells were reported as percent increase in cell proliferation.

Ishikawa cells = assay: Alkaline Phosphatase Assay in Human Endometrial Ishikawa Cells (agonist and antagonist mode); format: cell-based; settings: number in brackets = number of tests, NA = no detected activity at test concentration; for IC50: antagonist mode with 10 nM 17β-estradiol; for EC50: agonist mode
Experimental: This assay was run according to the procedure described by Albert et a., Cancer Res, […], 50(11), 330-6-10, with minor modification.
Ishikawa cells (from ATCC) were maintained in DMEM/F12 (1:1) phenol red free medium (Gibco) supplemented with 10% calf serum (Hyclone). 24 hours prior to testing, the medium was changed to DMEM/F12 (1:1) phenol red free containing 2% calf serum.
Compounds to be tested in the agonist mode were added to the culture media at varying concentrations. Compounds to be treated in the antagonist mode were prepared similarly, and 10 nM 17β-estradiol was also added to the culture media. The cells were then incubated at 37° C. for 3 days. On the fourth day, the media was remove, 1 volume of 1× Dilution Buffer (Clontech) was added to the well followed by addition of 1 volume of Assay Buffer (Clontech). The cells were then incubated at room temperature for 5 minutes. […] The cells were incubated at room temperature for 10 minutes and then quantified on a luminometer. The increase of chemiluminescence over vehicle control was used to calculate the increase in alkaline phosphatase activity.

[1] = biological target: T1, human estrogen receptor α (Homo sapiens, UniProt P03372); assay: Estrogen Receptor α Flash Plate Assay (binding of radiolabeled estrogen)
T1 construct: purchased Panvera
T1 sequence (P03372 1-595): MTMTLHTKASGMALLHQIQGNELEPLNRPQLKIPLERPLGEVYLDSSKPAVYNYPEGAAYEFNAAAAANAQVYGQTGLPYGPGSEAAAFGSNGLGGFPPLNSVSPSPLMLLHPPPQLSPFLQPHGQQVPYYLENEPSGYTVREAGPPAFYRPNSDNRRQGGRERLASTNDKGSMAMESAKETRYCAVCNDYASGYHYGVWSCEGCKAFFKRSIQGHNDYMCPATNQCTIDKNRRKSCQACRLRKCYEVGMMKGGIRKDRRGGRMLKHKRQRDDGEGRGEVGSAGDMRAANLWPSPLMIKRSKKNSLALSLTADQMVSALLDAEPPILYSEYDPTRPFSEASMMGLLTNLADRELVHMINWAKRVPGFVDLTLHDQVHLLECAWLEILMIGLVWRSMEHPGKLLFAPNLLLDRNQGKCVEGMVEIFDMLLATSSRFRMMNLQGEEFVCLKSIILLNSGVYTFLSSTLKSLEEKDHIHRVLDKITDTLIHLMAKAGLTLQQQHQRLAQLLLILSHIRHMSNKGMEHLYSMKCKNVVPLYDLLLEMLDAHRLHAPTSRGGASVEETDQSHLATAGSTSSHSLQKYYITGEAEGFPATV
Experimental: This assay monitors binding of radiolabeled estrogen to the estrogen receptor. It is performed on a BioMek 2000 (Beckman). Plates are read in a scintillation counter (Packard TopCount), with decreased counts an indication of binding of a compound to the receptor.
The plate was sealed and incubated at 4° C. overnight.
On day two, each well was washed three times with 200 μL PBS, pH 7.2, at room temperature. To each well was then added 98 μL radiolabeled estrogen (0.5 nM, which equals 6 nCi for a 120 Ci/mmol batch, Amersham), diluted in ESB and 5 mM dithiothreitol (DTT). To individual wells were then added 2.5 μL test compound diluted in 30% (v/v) dimethyl sulfoxide/50 mM HEPES, pH 7.5. The wells were mixed three times by aspiration, the plate sealed and incubated at room temperature for one hour. The wells were then counted for 1 min in a TopCount scintillation counter (Packard).

[2] = antagonist mode with 10 nM 17β-estradiol
[3] = flash plate binding, 0.5 nM radiolabeled estrogen, number in brackets = No. of determinations, NA = no detected activity at test concentration, read-out: Estrogen Receptor α in μM (No.)
[4] = Homo sapiens, MCF7, antagonist mode with 10 nM 17β-estradiol

`CN(C)CCOc1ccc(C2Oc3cc(O)ccc3C3=C2c2ccccc2OCC3)cc1` (single isomer, unassigned) [Compound 147] showed an IC50 (MCF-7 cells; [2]) greater than 10000 nM, an IC50 (Ishikawa cells) greater than 10000 nM and an IC50 [1, 3] of 0.18 µM.

With `CN(C)CCOc1ccc(C2Oc3cc(O)ccc3C3=C2c2ccccc2OCC3)cc1` (single isomer, unassigned) [Compound 149] the IC50 (MCF-7 cells; [2]) was 1360 nM, the IC50 (Ishikawa cells) was 1020 nM and the IC50 [1, 3] was 0.015 µM.

With `Oc1ccc2c(c1)OCCC1=C2C(c2ccc(OCCN3CCCCCC3)cc2)Oc2ccccc21` (single isomer, unassigned) [Compound 152] the IC50 (MCF-7 cells; [2]) was 2610 nM, the IC50 (Ishikawa cells) was 324 nM and the IC50 [1, 3] was 0.0086 µM.

For `Oc1ccc2c(c1)OCCC1=C2C(c2ccc(OCCN3CCCCCC3)cc2)Oc2ccccc21` (single isomer, unassigned) [Compound 153], the IC50 (MCF-7 cells; [2]) was 1270 nM, the IC50 (Ishikawa cells) was 509 nM and the IC50 [1, 3] was 0.0066 µM.

Work on `Oc1ccc2c(c1)OC(c1ccc(OCCN3CCCCCC3)cc1)C1=C2CCOc2ccccc21` (single isomer, unassigned) [Compound 154] yielded an IC50 (MCF-7 cells; [2]) of 1440 nM, an IC50 (Ishikawa cells) of 167 nM and an IC50 [1, 3] of 0.0042 µM.

In the case of `Oc1ccc2c(c1)OC(c1ccc(OCCN3CCCCCC3)cc1)C1=C2CCOc2ccccc21` (single isomer, unassigned) [Compound 155], the IC50 (MCF-7 cells; [2]) is reported as greater than 10000 nM, the IC50 (Ishikawa cells) is reported as 3770 nM and the IC50 [1, 3] is reported as 0.088 µM.

`CC(C)N(CCOc1ccc(C2Oc3cc(O)ccc3C3=C2c2ccc(O)cc2OCC3)cc1)C(C)C` (single isomer, unassigned) [Compound 167] showed an IC50 (MCF-7 cells; [2]) of 424 nM, an IC50 (Ishikawa cells) of 35 nM and an IC50 [1, 3] of 0.007 µM.

Work on `CC(C)N(CCOc1ccc(C2Oc3cc(O)ccc3C3=C2c2ccc(O)cc2OCC3)cc1)C(C)C` (single isomer, unassigned) [Compound 168] yielded an IC50 (MCF-7 cells; [2]) of 220 nM, an IC50 (Ishikawa cells) of 287 nM and an IC50 [1, 3] of 0.0042 µM.

With `c1ccc2c(c1)OC(c1ccc(OCCN3CCCCC3)cc1)C1=C2COc2ccccc21` (single isomer, unassigned) [Compound 170, 5R*-(−)-1-{2-[4-(5,11-Dihydro-chromeno[4,3-c]chromen-5-yl)-phenoxy]-ethyl}-piperidine] the IC50 (MCF-7 cells; [2]) was no less than 10000 nM, the IC50 (Ishikawa cells) was 2660 nM and the IC50 [1, 3] was 0.16 µM.

In the case of `CC(C)(C)C(=O)Oc1ccc2c(c1)OCC1=C2C(c2ccc(OCCN3CCCCC3)cc2)Oc2ccccc21` (single isomer, unassigned) [Compound 171, 2,2-Dimethyl-propionic acid 5S*-(+)-[4-(2-piperidin-1-yl-ethoxy)-phenyl]-5,11-dihydro-chromeno[4,3-c]chromen-2-yl ester], the IC50 (MCF-7 cells; [2]) is reported as 5100 nM, the IC50 (Ishikawa cells; Homo sapiens) is reported as 56.7 nM and the IC50 [1, 3] is reported as 0.14 µM.

With `CC(C)(C)C(=O)Oc1ccc2c(c1)OCC1=C2C(c2ccc(OCCN3CCCCC3)cc2)Oc2ccccc21` (single isomer, unassigned) [Compound 172, 2,2-Dimethyl-propionic acid 5R*-(−)-[4-(2-piperidin-1-yl-ethoxy)-phenyl]-5,11-dihydro-chromeno[4,3-c]chromen-2-yl ester] the IC50 (MCF-7 cells; [2]) was 2280 nM, the IC50 (Ishikawa cells) was 68.4 nM and the IC50 [1, 3] was 0.26 µM.

Molecule `COc1ccc2c(c1)O[C@@H](c1ccc(OCCN3CCCCC3)cc1)C1=C2COc2cc(OC)ccc21` (single isomer, unassigned) [Compound 173, 5S*-(+)-1-{2-[4-(2,8-Dimethoxy-5,11-dihydro-chromeno[4,3-c]chromen-5-yl)-phenoxy]-ethyl}-piperidine] has an IC50 (MCF-7 cells; [4]) greater than 10000 nM, an IC50 (Ishikawa cells; Homo sapiens) greater than 10000 nM and an IC50 [1, 3] of 0.17 µM.

`COc1ccc2c(c1)OCC1=C2C(c2ccc(OCCN3CCCCC3)cc2)Oc2cc(OC(=O)C(C)(C)C)ccc21` (single isomer, unassigned) [Compound 175] was tested, and the IC50 (MCF-7 cells; [4]) was 5000 nM, the IC50 (Ishikawa cells; Homo sapiens) was 300 nM and the IC50 [1, 3] was 0.66 µM.

Work on `Oc1ccc2c(c1)OCCC1=C2C(c2ccc(OCCN3CCCCCC3)cc2)Oc2cc(F)ccc21` (single isomer, unassigned) [Compound 177] yielded an IC50 (MCF-7 cells; [2]) of 3000 nM, an IC50 (Ishikawa cells) of 259 nM and an IC50 [1, 3] of 0.04 µM.

For `Oc1ccc2c(c1)OCCC1=C2C(c2ccc(OCCN3CCCCCC3)cc2)Oc2cc(F)ccc21` (single isomer, unassigned) [Compound 178], the IC50 (MCF-7 cells; [2]) was 1480 nM, the IC50 (Ishikawa cells) was 125 nM and the IC50 [1, 3] was 0.0064 µM and 0.0076 µM.

Work on `COc1ccc2c(c1)OCC1=C2[C@H](c2ccc(OCCN3CCCCC3)cc2)Oc2cc(O)ccc21` (single isomer, unassigned) [Compound 181, 8-Methoxy-11S*(−)-[4-(2-piperidin-1-yl-ethoxy)-phenyl]-5,11-dihydro-chromeno[4,3-c]chromen-2-ol] yielded an IC50 (MCF-7 cells; [4]) of 1340 nM, an IC50 (Ishikawa cells; Homo sapiens) of 34 nM and an IC50 [1, 3] of 0.0011 µM.

`COc1ccc2c(c1)OCCC1=C2C(c2ccc(OCCN3CCCCC3)cc2)Oc2cc(O)ccc21` (single isomer, unassigned) [Compound 196, 2-Methoxy-5S*-(−)-[4-(2-piperidin-1-yl-ethoxy)-phenyl]-11,12-dihydro-5H-6,13-dioxa-benzo[3,4]cyclohepta[1,2-a]naphthalen-8-ol] was tested, and the IC50 (MCF-7 cells; [2]) was greater than 1000 nM, the IC50 (Ishikawa cells) was 229 nM and the IC50 [1, 3] was 0.055 µM.

In the case of `c1ccc2c(c1)O[C@@H](c1ccc(OCCN3CCCCC3)cc1)C1=C2COc2ccccc21` (stereo in doubt) [Compound 169, 5S*-(+)-1-{2-[4-(5,11-Dihydro-chromeno[4,3-c]chromen-5-yl)-phenoxy]-ethyl}-piperidine], the IC50 (MCF-7 cells; [2]) is reported as no less than 10000 nM, the IC50 (Ishikawa cells) is reported as 830 nM and the IC50 [1, 3] is reported as 0.072 µM.

Molecule `CC(C)(C)C(=O)Oc1ccc2c(c1)OC(c1ccc(OCCN3CCCCC3)cc1)C1=C2COc2cc(OC(=O)C(C)(C)C)ccc21` (stereo not shown) [Compound 22, 2,2-Dimethyl-propionic acid, 8-(2,2-dimethyl-propionyloxy)-5-[4-(2-piperidin-1-yl-ethoxy)-phenyl]-5,11-dihydro-chromeno[4,3-c]chromen-2-yl ester] has an EC50 (MCF-7 cells; Homo sapiens) greater than 10000 nM, an IC50 (MCF-7 cells; [4]) of 662 nM and an EC50 (Ishikawa cells; Homo sapiens) greater than 10000 nM. The IC50 (Ishikawa cells; Homo sapiens) was 53.5 nM and the IC50 [1, 3] was 3.45 µM.

`CC(C)(C)C(=O)Oc1ccc2c(c1)OC(C)(c1ccc(OCCN3CCCCC3)cc1)C1=C2COc2cc(OC(=O)C(C)(C)C)ccc21` (stereo not shown) [Compound 41, 2,2-Dimethyl-propionic acid 8-(2,2-dimethyl-propionyloxy)-11-methyl-11-[4-(2-piperidin-1-yl-ethoxy)-phenyl]-5,11-dihydro-chromeno[4,3-c]chromen-2-yl ester] was tested, and the EC50 (MCF-7 cells; Homo sapiens) was greater than 10000 nM, the IC50 (MCF-7 cells; [4]) was greater than 10000 nM and the EC50 (Ishikawa cells; Homo sapiens) was greater than 10000 nM. The IC50 (Ishikawa cells; Homo sapiens) was 550 nM and the IC50 [1, 3] was 1.9 µM.

With `Oc1ccc2c(c1)OCCC1=C2C(c2ccc(OCCN3CCCCCC3)cc2)Oc2cc(F)ccc21` (stereo not shown) [Compound 174, 5-[4-(2-Azepan-1-yl-ethoxy)-phenyl]-8-fluoro-11,12-dihydro-5H-6,13-dioxa-benzo[3,4]cyclohepta[1,2-a]naphthalen-2-ol] the IC50 (MCF-7 cells; [4]) was 1740 nM, the IC50 (Ishikawa cells; Homo sapiens) was 135 nM and the IC50 [1] was 0.0015 µM and 0.0013 µM.
